# Results reported in patent US8299129B2, “Peptide lipid-containing carrier and method for introducing compound into cells using same” (Fukuoka Prefectural Government, priority 2006, dated 2012).
# Key:
# Balb/c mouse [1] = assay: Acute toxicity in mouse after tail vein injection of peptide lipid-RNA complex; format: in vivo; conditions: at the concentration tested
# Protocol: (§1) Cy3-labeled siRNA ([…], purchased from Dharmacon) was mixed with 200 μl of 150 mM NaCl solution, 1.3 mM peptide lipid (RE-C12) (16 μl) was mixed with the above-mentioned siRNA solution and the mixture was incubated for 5 min to give peptide lipid—RNA complex. This was injected to Balb/c mouse (15-week-old) from the tail vein. […] Four hours later, the mouse was autopsied and each tissue (heart, lung, liver, kidney, spleen) was removed, which was cut into small pieces and observed with a fluorescence microscope. When peptide lipid was used as a carrier, siRNA could be introduced into each tissue in the body.
# Balb/c mouse [2] = assay: Introduction of Cy3-labeled siRNA into mouse tissues using peptide lipid, fluorescence microscopy of removed tissues; format: in vivo; conditions: tail vein injection, Cy3-labeled siRNA complex, 4 hours
# Protocol: as §1
substance,measurement,setting,value
Arg-Glu-C12 [RE-C12],acute toxicity,Balb/c mouse [1],acute toxicity was not observed
same,Introduction efficiency into the liver and spleen,Balb/c mouse [2],particularly superior
same,"evaluation (introduction of siRNA), heart",Balb/c mouse [2]; heart,5%
same,"evaluation (introduction of siRNA), kidney",Balb/c mouse [2]; kidney,5%
same,"evaluation (introduction of siRNA), liver",Balb/c mouse [2]; liver,25%
same,"evaluation (introduction of siRNA), lung",Balb/c mouse [2]; lung,10%
same,"evaluation (introduction of siRNA), spleen",Balb/c mouse [2]; spleen,30%
